Source: patent US12115178B2, “Acylated active agents and methods of their use for the treatment of autoimmune disorders” (Flagship Pioneering Innovations V, Inc., priority 2018, dated 2024)

How the values were obtained:
Assay type in all cases: in vitro ADME
[1] = Assay 1. Stability in Simulated Gastric Fluid (SGF); conditions: SGF pH 1.6 with pepsin, 1 μM, 37° C.
Method in brief: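 Degradation rate from LC/MS of acetonitrile-quenched aliquots (T0, then regular intervals). Fresh SGF (pH 1.6 NaCl, FaSSIF powder, pepsin 0.1 mg/mL) held compound at 1 μM final, 37° C; 1 mM DMSO stock.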

[2] = Assay 2. Stability in Simulated Intestinal Fluid (SIF); conditions: SIF pH 6.7 with pancreatin, 1 μM, 37° C.
Method in brief: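 Degradation rates came from LC/MS of acetonitrile-quenched samples drawn at intervals, starting at T0. The medium was freshly made pH 6.7 FaSSIF containing pancreatin, and test compound was present at 1 µM while being shaken at 37 °C.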

[3] = Assay 3. In vitro Colonic Material Stability Assay
Experimental: Assay 3. In vitro Colonic Material Stability Assay. This assay was used to assess the stability of an acylated active agent in a large intestine. All experiments were performed in an anaerobic chamber containing 90% nitrogen, 5% hydrogen and 5% carbon dioxide. Colonic material was resuspended as a slurry (15% w/v final concentration) in pre-reduced, anaerobically sterilized dilution blanks (Anaerobe Systems AS-908). The colonic material was then inoculated into 96 well plates containing YCFAC media (Anaerobe Systems AS-680) or other suitable media (6.7 μL slurry into 1 mL total media). Compounds or groups of compounds were added to each individual well to reach a final analyte concentration of 1 or 10 μM, and the material was mixed by pipetting. Sample was removed after set timepoints (0, 120, 240, 480, 1440, 2880 minutes after initiation of the assay), quenched with acetonitrile containing internal standard, and analyzed by LC/MS.

[4] = colonic material slurry, anaerobic, 1 or 10 μM

Row | Structure (SMILES) | Assay 1 (SGF) (% Remaining @ 1 hour) [1] | Assay 2 (SIF) (% @ Remaining 4 hours) [2] | Assay 3 (% Remaining at 24 h) [3, 4] | Assay 3 (% Remaining at 24 h) ([3]; Run 1, colonic material) | Assay 3 (% Remaining at 24 h) ([3]; Run 2, colonic material)
1 | CCC(=O)O[C@@H]1[C@@H](OC(=O)CC)[C@H](OC(=O)Cc2c[nH]c3ccccc23)OC[C@@H]1OC(=O)CC [Compound 103, (3S,4S,5R,6S)-6-{[2-(1H-indol-3-yl)acetyl]oxy}-4,5-bis(propanoyloxy)oxan-3-yl propanoate] | C (>75% of the tested compound remaining) | A (<25% of the tested compound remaining) | A (<25% of the tested compound remaining) |  | 
2 | CCC(=O)O[C@H]1[C@H](OC)OC[C@@H](OC(=O)CC)[C@H]1OC(=O)CC [Compound 51, (2R,3R,4R,5R)-2-methoxy-3,5-bis(propanoyloxy)oxan-4-yl propanoate] | C (>75% of the tested compound remaining) | C (>75% of the tested compound remaining) | B (25-75% of the tested compound remaining) |  | 
3 | C[C@@H]1O[C@H](OC(=O)CCc2c[nH]c3ccccc23)[C@@H](OC(=O)CCc2c[nH]c3ccccc23)[C@H](OC(=O)CCc2c[nH]c3ccccc23)[C@@H]1OC(=O)CCc1c[nH]c2ccccc12 [Compound 70, (2R,3S,4R,5R,6S)-3,4,5-tris({[3-(1H-indol-3-yl)propanoyl]oxy})-6-methyloxan-2-yl 3-(1H-indol-3-yl)propanoate] | B (25-75% of the tested compound remaining) | A (<25% of the tested compound remaining) |  | A (<25% of the tested compound remaining) | B (25-75% of the tested compound remaining)
4 | O=C(CCc1c[nH]c2ccccc12)O[C@@H]1OC[C@H](OC(=O)CCc2c[nH]c3ccccc23)[C@H](OC(=O)CCc2c[nH]c3ccccc23)[C@H]1OC(=O)CCc1c[nH]c2ccccc12 [Compound 69, (2S,3R,4S,5S)-3,4,5-tris({[3-(1H-indol-3-yl)propanoyl]oxy})oxan-2-yl 3-(1H-indol-3-yl)propanoate] | B (25-75% of the tested compound remaining) | A (<25% of the tested compound remaining) | A (<25% of the tested compound remaining) |  | 
5 | CCC(=O)Oc1ccc(-c2cc(=O)c3c(O)cc(OC(=O)CC)cc3o2)cc1 [Compound 168, 5-hydroxy-4-oxo-2-[4-(propanoyloxy)phenyl]-4H-chromen-7-yl propanoate] | B (25-75% of the tested compound remaining) | A (<25% of the tested compound remaining) | A (<25% of the tested compound remaining) |  | 
6 | CCCC(=O)O[C@H]1[C@H](OC)OC[C@@H](OC(=O)CCC)[C@H]1OC(=O)CCC [Compound 50, (2R,3R,4R,5R)-3,5-bis(butanoyloxy)-2-methoxyoxan-4-yl butanoate] | C (>75% of the tested compound remaining) | A (<25% of the tested compound remaining) | A (<25% of the tested compound remaining) |  | 
7 | CO[C@H]1O[C@H](COC(C)=O)[C@@H](OC(C)=O)[C@H](OC(C)=O)[C@@H]1OC(C)=O [Compound 161, (2R,3R,4S,5S,6S)-2-(acetoxymethyl)-6-methoxytetrahydro-2H-pyran-3,4,5-triyl triacetate] | C (>75% of the tested compound remaining) | C (>75% of the tested compound remaining) | B (25-75% of the tested compound remaining) |  | 
8 | CCC(=O)O[C@@H]1[C@@H](OC(=O)CC)[C@@H](OC(=O)CC)C(O)O[C@H]1C (stereo partly drawn) [Compound 113, (3R,4R,5S,6S)-2-hydroxy-6-methyl-4,5-bis(propanoyloxy)oxan-3-yl propanoate] | C (>75% of the tested compound remaining) | A (<25% of the tested compound remaining) | C (>75% of the tested compound remaining) |  | 
9 | CCCC(=O)O[C@@H]1[C@@H](OC(=O)CCC)[C@H](C)O[C@@H](Oc2ccccc2C(=O)O)[C@@H]1OC(=O)CCC [Compound 40, 2-(((2S,3R,4R,5S,6S)-3,4,5-tris(butyryloxy)-6-methyltetrahydro-2H-pyran-2-yl)oxy)benzoic acid] | C (>75% of the tested compound remaining) | C (>75% of the tested compound remaining) | C (>75% of the tested compound remaining) |  | 
10 | CCCC(=O)O[C@@H]1[C@@H](OC(=O)CCC)[C@@H](OC(=O)CCc2c[nH]c3ccccc23)OC[C@H]1OC(=O)CCC [Compound 96, (2R,3R,4S,5R)-4,5-bis(butanoyloxy)-2-{[3-(1H-indol-3-yl)propanoyl]oxy}oxan-3-yl butanoate] | C (>75% of the tested compound remaining) | A (<25% of the tested compound remaining) | A (<25% of the tested compound remaining) |  | 
11 | CCC(=O)O[C@@H]1[C@@H](OC(=O)CC)[C@H](OC(=O)CCc2c[nH]c3ccccc23)OC[C@@H]1OC(=O)CC [Compound 74, (2S,3R,4S,5S)-3,4,5-tris(propanoyloxy)oxan-2-yl 3-(1H-indol-3-yl)propanoate] | C (>75% of the tested compound remaining) | A (<25% of the tested compound remaining) | A (<25% of the tested compound remaining) |  | 
12 | O=C(Cc1c[nH]c2ccccc12)Oc1cc(C(=O)O)cc(OC(=O)Cc2c[nH]c3ccccc23)c1OC(=O)Cc1c[nH]c2ccccc12 [Compound 200, 3,4,5-tris({[2-(1H-indol-3-yl)acetyl]oxy})benzoic acid] | C (>75% of the tested compound remaining) | A (<25% of the tested compound remaining) | A (<25% of the tested compound remaining) |  | 
13 | CCC(=O)OC[C@H]1O[C@H](OC)[C@H](OC(=O)CC)[C@@H](OC(=O)CC)[C@@H]1OC(=O)CC [Compound 55, [(2R,3R,4S,5R,6S)-6-methoxy-3,4,5-tris(propanoyloxy)oxan-2-yl]methyl propanoate] | C (>75% of the tested compound remaining) | A (<25% of the tested compound remaining) | A (<25% of the tested compound remaining) |  | 
14 | CCC(=O)OC[C@H]1O[C@@H](OC(=O)Cc2c[nH]c3ccccc23)[C@H](OC(=O)CC)[C@@H](OC(=O)CC)[C@@H]1OC(=O)CC [Compound 111, [(2R,3R,4S,5R,6S)-6-{[2-(1H-indol-3-yl)acetyl]oxy}-3,4,5-tris(propanoyloxy)oxan-2-yl]methyl propanoate] | C (>75% of the tested compound remaining) | A (<25% of the tested compound remaining) | A (<25% of the tested compound remaining) |  | 
15 | CCC(=O)O[C@@H]1[C@@H](OC(=O)CC)[C@@H](OC)OC[C@H]1OC(=O)CC [Compound 72, (2S,3R,4S,5R)-2-methoxy-4,5-bis(propanoyloxy)oxan-3-yl propanoate] | C (>75% of the tested compound remaining) | B (25-75% of the tested compound remaining) | A (<25% of the tested compound remaining) |  | 
16 | CCC(=O)O[C@@H]1[C@@H](OC(=O)CC)[C@@H](OC(=O)Cc2c[nH]c3ccccc23)OC[C@H]1OC(=O)CC [Compound 117, (2R,3R,4S,5R)-2-{[2-(1H-indol-3-yl)acetyl]oxy}-4,5-bis(propanoyloxy)oxan-3-yl propanoate] | C (>75% of the tested compound remaining) | A (<25% of the tested compound remaining) | A (<25% of the tested compound remaining) |  | 
17 | CCCC(=O)O[C@@H]1[C@@H](OC(=O)CCC)[C@H](C)O[C@@H](OC(=O)CCc2c[nH]c3ccccc23)[C@@H]1OC(=O)CCC [Compound 83, (2S,3R,4R,5S,6S)-4,5-bis(butanoyloxy)-2-{[3-(1H-indol-3-yl)propanoyl]oxy}-6-methyloxan-3-yl butanoate] | C (>75% of the tested compound remaining) | A (<25% of the tested compound remaining) | A (<25% of the tested compound remaining) |  | 
18 | CCC(=O)O[C@@H]1[C@H](OC(=O)CC)COC(O)[C@@H]1OC(=O)CC (stereo partly drawn) [Compound 105, (3R,4R,5R)-2-hydroxy-4,5-bis(propanoyloxy)oxan-3-yl propanoate] | C (>75% of the tested compound remaining) | B (25-75% of the tested compound remaining) | B (25-75% of the tested compound remaining) |  | 
